Test system: brain MTs
Assay: MicroPET in mice brain
Type: in vivo
Conditions: for BBB penetration and brain distribution: microPET, mice
Protocol: Blocking with unlabeled MPC-6827 and HD-800 (5 mg/kg/i.v) 20 minute prior to radioligand administration indicates specific binding of radiotracer to brain MTs. […] Time activity curves (TACs) further confirm the washout of [^11C]HD-800 in mice brain and excellent specific binding with unlabeled HD-800 and MPC-6827 as blocking agents (FIG. 9).^23-24
The distribution pattern of [^18F]FEMPC-6827 in the mice brain is similar to that of [^11C]MPC-6827 and [^11C]HD-800.

SMILES	BBB penetration and brain distribution	blocking of brain activity (unlabeled MPC-6827 and HD-800 (5 mg/kg/i.v) 20 minute prior to radioligand)
Cc1coc2ncnc(N(C)c3ccc(O[11CH3])cc3)c12 [[^11C]HD-800]	penetrated the BBB followed by a homogeneous distribution in the mouse brain	significant decreasing activity
Cc1nc(N(C)c2ccc(OCC[18F])cc2)c2ccccc2n1 [[^18F]FEMPC-6827]	blood brain barrier penetration and accumulation in the brain	

Reference: patent US12054463B2, “Radiolabeled microtubule imaging compounds and uses thereof” (The Trustees of Columbia University in the City of New York, priority 2017, dated 2024)
